# Target: T1, Prostaglandin D2 receptor 2 (Homo sapiens, UniProt Q9Y5Y4)
# T1 sequence (Q9Y5Y4 whole entry): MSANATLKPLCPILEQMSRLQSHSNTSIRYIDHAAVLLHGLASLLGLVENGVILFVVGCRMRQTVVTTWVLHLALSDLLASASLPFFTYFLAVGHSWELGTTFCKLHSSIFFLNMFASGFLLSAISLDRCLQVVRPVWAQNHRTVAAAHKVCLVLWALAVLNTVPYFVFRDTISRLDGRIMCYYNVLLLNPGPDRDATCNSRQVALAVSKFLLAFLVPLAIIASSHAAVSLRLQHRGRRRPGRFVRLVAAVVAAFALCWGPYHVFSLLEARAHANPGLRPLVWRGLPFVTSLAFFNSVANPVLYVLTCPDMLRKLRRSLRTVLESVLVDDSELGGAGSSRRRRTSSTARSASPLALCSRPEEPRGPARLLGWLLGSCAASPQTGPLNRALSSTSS
# Test: The inhibitory activity can be investigated by a radioligand binding assay (Sawyer et al., Br. J. Pharmocol 2002, 137, 1163-72). The radioligand binding assay was performed at room temperature in binding buffer (10 mM HEPES/KOH pH […], with protease inhibitor cocktail tablets), containing 1.5 nM [3H]PGD2 (Amersham, 156 Cie/mmol), and 10 ug of hCRTH2 HEK293 (EBNA) cell membrane protein in a final volume of 100 ul in 96 well plates (Corning, USA). Non-specific binding was determined in the presence of 1 uM PGD2 (Cayman, USA). Competing pyrazine sulfonamides were diluted in dimethylsulphoxide so that the total volume of dimethylsulfoxide was kept constant at 1% dimethylsulphoxide (Me2SO). 10 ul of the pyrazine sulfonamides were added. Incubation (60 min at room temperature) was terminated by rapid filtration through 96 wells hydrophobic GF/C Unifilter plates.
row,Compound,Ki
1,O=S(=O)(Nc1nccnc1-c1ccc(Cn2ccc3ccc(F)cc32)cc1)c1ccccc1C(F)(F)F,1930 nM
2,CN(Cc1ccc(-c2nccnc2NS(=O)(=O)c2ccccc2Cl)cc1)c1ccc(F)cc1F,2950 nM
3,CN(Cc1ccc(-c2nccnc2NS(=O)(=O)c2ccccc2C(F)(F)F)cc1)c1ccc(Cl)c(Cl)c1,1580 nM
4,O=S(=O)(Nc1nccnc1-c1ccc(Cn2c(-c3ccccn3)cc3ccccc32)cc1)c1ccccc1C(F)(F)F,850 nM
5,O=S(=O)(Nc1nccnc1-c1ccc(CN(Cc2ccccc2)c2ccccn2)cc1)c1ccccc1Cl,2640 nM
6,CN(Cc1ccc(-c2nccnc2NS(=O)(=O)c2ccccc2C(F)(F)F)cc1)c1ccc(Cl)cc1Cl,2820 nM
7,CN(Cc1ccc(-c2nccnc2NS(=O)(=O)c2ccccc2C(F)(F)F)cc1)c1cccc(F)c1,700 nM
8,Cc1cc2ccccc2n1Cc1ccc(-c2nccnc2NS(=O)(=O)c2ccccc2C(F)(F)F)cc1,3060 nM
9,O=S(=O)(Nc1nccnc1-c1ccc(CN(Cc2ccccc2)c2ccccn2)cc1)c1ccccc1C(F)(F)F,4440 nM
10,N#Cc1ccc(OCc2ccc(-c3nccnc3NS(=O)(=O)c3ccccc3C(F)(F)F)cc2)cc1,1590 nM
11,CN(Cc1ccc(-c2nccnc2NS(=O)(=O)c2ccccc2C(F)(F)F)cc1)c1ccc(C#N)cc1,470 nM
12,O=S(=O)(Nc1nccnc1-c1ccc(Cn2ccc3cc(F)ccc32)cc1)c1ccccc1C(F)(F)F,950 nM
13,O=S(=O)(Nc1nccnc1-c1ccc(COc2ccc(F)cc2)cc1)c1ccccc1C(F)(F)F,480 nM
14,O=S(=O)(Nc1nccnc1-c1ccc(CN2CCOc3ccccc32)cc1)c1ccccc1C(F)(F)F,620 nM
15,COc1ccc(OCc2ccc(-c3nccnc3NS(=O)(=O)c3ccccc3C(F)(F)F)cc2)cc1,2600 nM
16,CN(Cc1ccc(-c2nccnc2NS(=O)(=O)c2ccccc2Cl)cc1)c1ccc(C#N)cc1,1490 nM
17,CN(Cc1ccc(-c2nccnc2NS(=O)(=O)c2ccccc2C(F)(F)F)cc1)c1ccc(Cl)cc1,1470 nM
18,O=S(=O)(Nc1nccnc1-c1ccc(COc2ccc(Cl)nc2)cc1)c1ccccc1C(F)(F)F,720 nM
19,Cc1cc2cc(Cl)ccc2n1Cc1ccc(-c2nccnc2NS(=O)(=O)c2ccccc2C(F)(F)F)cc1,4650 nM
20,O=S(=O)(Nc1nccnc1-c1ccc(COc2ccccc2)cc1)c1ccccc1C(F)(F)F,1320 nM
21,O=S(=O)(Nc1nccnc1-c1ccc(COc2cccc(Cl)c2)cc1)c1ccccc1C(F)(F)F,2900 nM
22,COc1ccc2c(c1)cc(C)n2Cc1ccc(-c2nccnc2NS(=O)(=O)c2ccccc2Cl)cc1,2210 nM
23,CCN(Cc1ccc(-c2nccnc2NS(=O)(=O)c2ccccc2C(F)(F)F)cc1)c1ccccc1,590 nM
24,O=S(=O)(Nc1nccnc1-c1ccc(CN2CCc3ccccc32)cc1)c1ccccc1C(F)(F)F,2690 nM

# Reference: ChEMBL document CHEMBL3638482, “2,3-disubstituted pyrazinesulfonamides as CRTH2 inhibitors” (2014)
